In patent US20190216891A1, “METHOD FOR MODULATING MYELINATION” (Yeda Research and Development Co., Ltd., priority 2016, published 2019):
“Also recorded” adds a separate entry of the source.

How the values were obtained:
Format in all cases: cell-based, mouse
[1] = system: oligodendrocytes co-cultured with DRG neurons; assay: Number of Olig2 cells in oligodendrocyte/DRG neuron co-cultures; details: both genotypes (WT and Gpr37−/−); 6 days treatment, fixed at DIV7
Description: (§1) FIGS. 11A-B illustrate that EPE blocks the nuclear translocation of pERK in Gpr37 null oligodendrocytes. A. Cultured OPCs isolated from WT and Gpr37^−/− mice were grown for 3 days (DIV2-DIVS) in the presence or absence (control) of EPE, followed by immunolabeling with antibodies to pERK and PLP. The nuclei were labeled with Dapi. PLP and pERK immunoreactivity are shown in separate images along with the Dapi signal. Higher magnification of the nucleus is shown in the insets in each panel. […] Scale bar, 50 μm. […] Cultures were grown in the absence (DME), or presence of EPE, PLX4032, or DMSO as control for 6 days, and then fixed at DIV7 and labeled with antibodies to Olig2. The number of positive cells per field of view is shown in the graph. Bars represent mean±SEM (n=3 different cultures per each genotype; 10 fields of view were analyzed for each culture).
(§2) Immunofluorescence and Immunoblotting For immunohistochemistry, mice were anesthetized and perfused with 2% PFA/PBS. Brains and optic nerves were isolated and post fixed on ice for 15 min, followed by 30% sucrose/ PBS at 4° C. overnight. Tissues were embedded in OCT and sectioned. Sections were permeabilized in methanol at −20° C. for 5 min. […] Western blot analysis was done using OPC cultures lysed in loading buffer and chemiluminescence was detected using the ChemiDoc MP System (Bio-Rad). […]

[2] = system: oligodendrocytes co-cultured with DRG neurons; assay: OPC/DRG neuron co-cultures: PLP-positive oligodendrocytes associated with axonal Caspr clustering
From the text: FIGS. 5A-H illustrate that Gpr37-dependent inhibition of oligodendrocyte differentiation is mediated by ERK phosphorylation and nuclear translocation. A. Immunolabeling of sagittal brain sections of P12 brain stems from wild type (WT) and KO (Gpr37^−/−) mice using antibodies to phosphorylated ERK (pERK) and Olig2. B. The number of pERK and Olig2 positive cells in Gpr37^−/− compared to WT brainstem (*P<0.05, n=5 images from two mice per genotype). C. Western blot analysis of purified OPC cultures at DIV7 (three cultures per each genotype are shown). Blots were incubated with antibodies to pERK or general ERK (ERK) as indicated. D. Relative value of pERK intensity normalized by general ERK (p=0.02, n=7 cultures each genotype). E. pERK is present in the nucleus of oligodendrocytes lacking Gpr37. […] (* p<0.05, n=3 different primary cultures for each genotype; 100 PLP-positive oligodendrocytes were counted per each culture). […] H. Quantitation of the results showing the fold change in the percent of PLP-positive cells that associate with axonal Caspr immunoreactivity in all samples compare to the non-treated wild type cultures. […]
Immunofluorescence and Immunoblotting For immunohistochemistry, mice were anesthetized and perfused with 2% PFA/PBS. […] Western blot analysis was done using OPC cultures lysed in loading buffer and chemiluminescence was detected using the ChemiDoc MP System (Bio-Rad). […]

[3] = system: wild type OPC cultures; assay: Oligodendrocyte differentiation in wild type OPC cultures (PLP and O4 immunolabeling); details: wild type OPC cultures grown four days with 1mM IBMX
Description: A. Immunolabeling of wild type OPC cultures grown for four days in the absence (Control) or presence of 1mM 3-isobutyl-1-methylxanthine (IBMX) using antibodies to PLP and O4. Dapi was used to label the nuclei. Scale bar, 50 μm. B. Percentage of PLP-positive oligodendrocytes among the total O4-positive cells (**P<0.01, t-test, n=3 cultures). Bars represent mean±SEM.
as §2, with “min. Immunostaining of GPR37 was carried out using 2%PFA-perfused mouse brain sections that were permeabilized with cold acetone and blocked with 5% fish gelatin and 0.5% Triton-X100 at RT for 1 hr. For immunocytochemistry, cells were fixed with 4% PFA/ PBS for 15min at room temperature. For O4 staining, live cells were incubated with medium containing the O4 antibody at 37° C. for 45min before fixation.” for “min.”

[4] = system: nuclear translocation of ERK1/2; assay: Nuclear localization of pERK in cultured OPCs (immunolabeling pERK, PLP, Dapi); details: Gpr37−/− OPCs (DIV7)
Description: as §1
FIGS. 12A-D illustrate the involvement of cAMP in Gpr37 signaling in oligodendrocytes. A-B. Absence of Gpr37 results in increased levels of cAMP in mice brain (A) and cultured OPCs (B). Intracellular cAMP was extracted from P70 mice brains (*P<0.05, t-test; n=6 WT and n=7 KO mice), or from DIV5 cultured OPCs (*P<0.01, t-test; n=3 different OPC primary cultures of each genotype) and detected by ELISA. C. Adenylate cyclase inhibition prevents the nuclear translocation of pERK in Gpr37^−/− OPCs. Cultured wild type (WT) and Gpr37^−/− OPCs (DIV7) were left untreated (control) or treated with the adenylyl cyclase inhibitor SQ22536 (0.1 mM) for 2 hours in their growth medium. Cells were then fixed and labeled with Dapi to mark their nuclei, and with antibodies to PLP and pERK. […] Bars show mean±SEM (*P<0.01, t-test; n=3 different primary cultures for each genotype; 50 PLP-positive cells were counted per each culture).
FIGS. 13A-B illustrate that inhibition of Epac activity attenuates nuclear translocation of ERK1/2 in oligodendrocytes lacking GPR37. […] Bars show mean±SEM (*P<0.05, **P<0.01, t-test; n=3 different primary cultures for each genotype; 100 PLP-positive cells were counted per each culture). […]

## CCCS(=O)(=O)Nc1ccc(F)c(C(=O)c2c[nH]c3ncc(-c4ccc(Cl)cc4)cc23)c1F [PLX4032]
[1]
  number of Olig2 cells (per field of view): do not affect
[2]; Gpr37−/− oligodendrocytes with wild type DRG neurons, 6 days in 10 μM EPE or 1 μM PLX4032, vs DMSO control
  number of PLP-positive oligodendrocytes associated with intense axonal clustering of Caspr: completely abolished; also recorded: significantly low number
[2]; wild type cultures, 6 days in 10 μM EPE or 1 μM PLX4032
  PLP-positive oligodendrocytes associated with axonal clustering of Caspr: no effect

## CC(C)Cn1c(=O)n(C)c(=O)c2[nH]cnc21 [IBMX, 3-isobutyl-1-methylxanthine]
[3]
  oligodendrocyte differentiation (percentage of PLP-positive oligodendrocytes among total O4-positive cells): enhances the differentiation; also recorded: enhances oligodendrocyte differentiation

## CC(C)(C)c1cc(C(=O)/C(C#N)=N/Nc2cccc(Cl)c2)no1 [ESI-09]
[4]; ESI-09 1 μM for 2 hours, vs DMSO
  number of oligodendrocytes displaying nuclear localization of pERK (ERK1/2): significant decrease; also recorded: reduced to equivalent level of wild type cells

## Nc1ncnc2c1ncn2C1CCCO1 (stereo not shown) [SQ 22536]
[4]; SQ22536 0.1 mM for 2 hours
  number of oligodendrocytes displaying nuclear localization of pERK (ERK1/2): significant decrease
[4]; SQ22536 0.1 mM for 2 hours, listed as SQ22536
  number of oligodendrocytes displaying nuclear localization of pERK (ERK1/2): reduced to equivalent levels of wild type cells
